From PMC6753144, “Exploiting biofilm phenotypes for functional characterization of hypothetical genes in Enterococcus faecalis” (NPJ Biofilms and Microbiomes, 2019)

Target: T1, Bph-H6 (Bph, OG1RF_10435, biofilm phosphatase) (Enterococcus faecalis, UniProt A0ACD6T9Q6)
T1 construct: full length, 177 residues, C-terminal His6 tag (pET28b+, NcoI/XhoI), expressed in E. coli BL21(DE3), Ni-NTA purified
Assay: malachite green phosphate release assay
Format: biochemical
Conditions: 10 mM Mn2+, pH 7.5, 37 °C, 1 h, 1 µM enzyme, 100 µM substrate

T1 sequence (A0ACD6T9Q6 entry or part of it): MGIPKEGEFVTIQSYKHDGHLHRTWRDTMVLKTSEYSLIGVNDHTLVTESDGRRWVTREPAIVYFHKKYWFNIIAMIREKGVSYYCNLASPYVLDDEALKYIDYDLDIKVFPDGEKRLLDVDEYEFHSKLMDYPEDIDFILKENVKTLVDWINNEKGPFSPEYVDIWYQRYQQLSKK

| SMILES | malachite green phosphate release assay |
| --- | --- |
| Nc1nc2c(ncn2[C@@H]2O[C@H](COP(=O)(O)OP(=O)(O)O)[C@@H](OP(=O)(O)OP(=O)(O)O)[C@H]2O)c(=O)[nH]1 [ppGpp] | We also detected phosphatase activity against ppGpp, the second messenger |
| Nc1ncnc2c1ncn2[C@@H]1O[C@H](COP(=O)(O)OP(=O)(O)OP(=O)(O)O)[C@@H](O)[C@H]1O [ATP] | Bph-H6 had in vitro phosphatase activity on nucleoside triphosphate, nucleoside diphosphate, and deoxynucleoside phosphate substrates |
